Tests used:
[1] = biological target: T1, 20S Human Erythrocyte Proteasome (HEP) (Homo sapiens, UniProt P20618+P28074); assay: Chymotrypsin-like activity of 20S Human Erythrocyte Proteasome (HEP), IC50 determination; type: biochemical; conditions: assay of Example C, inhibition of HEP
T1 construct: 20S Human Erythrocyte Proteasome (HEP), purchased from Immatics Biotechnologies Inc; purchased Immatics Biotechnologies Inc., Tübingen, Germany; host or cells: human erythrocytes (natural source)
How it was run: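 20S proteasome at 0.2 μg/mL (about 0.6 nM catalytic sites) in 20 mM Tris with 0.04% SDS, preincubated 15 min at 37° C with inhibitor before Suc-LLVY-AMC (100 μM final). AMC fluorescence read in the linear range; triplicates, IC50 from concentration series.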

[2] = biological target: T2, proteasome in Molt-4 cells (human leukemia) (Homo sapiens, UniProt P20618+P28074); type: cell-based; conditions: assay of Example E, inhibition of MOLT4; read-out: MOLT4 (EC50)
T2 sequence (P28074 60-263): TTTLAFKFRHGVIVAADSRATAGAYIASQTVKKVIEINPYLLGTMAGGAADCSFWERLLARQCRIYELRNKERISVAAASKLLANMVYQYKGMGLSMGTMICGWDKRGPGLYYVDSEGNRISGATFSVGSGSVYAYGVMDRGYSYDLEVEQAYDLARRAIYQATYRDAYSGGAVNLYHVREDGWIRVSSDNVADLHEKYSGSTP
T2 sequence (P20618 29-241): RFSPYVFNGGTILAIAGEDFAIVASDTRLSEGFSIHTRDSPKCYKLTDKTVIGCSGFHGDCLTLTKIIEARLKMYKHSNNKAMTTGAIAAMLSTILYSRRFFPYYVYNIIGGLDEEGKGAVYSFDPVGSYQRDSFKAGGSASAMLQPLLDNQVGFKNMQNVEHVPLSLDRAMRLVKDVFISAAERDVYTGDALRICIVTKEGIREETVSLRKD
How it was run: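 Intact Molt-4 cells (6×10^6 cells/mL) in HEPES-buffered saline were preincubated with inhibitor 15 min at 37 °C, then given cell-permeable MeOSuc-FLF-AFC at 25 μM final.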

Row | Structure (SMILES) | IC50 [1] [µM] | EC50 [2] [µM]
1 | CCCCCC(=O)N[C@H](C(=O)N[C@@H](CC(C)C)B1O[C@@H]2C[C@@H]3C[C@@H](C3(C)C)[C@]2(C)O1)[C@@H](C)O [D.3.178, Hexanamide,N-[(1S,2R)-1-[[[(1R)-1-[(3aS,4S,6S,7aR)-hexahydro-3a,5,5-trimethyl-4,6-methano-1,3,2-benzodioxaborol-2-yl]-3-methylbutyl]amino]carbonyl]-2-hydroxypropyl]] | < 0.1 | < 0.2
2 | CCCCCCCCCC(=O)N[C@@H](CNC(=O)Cc1ccc(OC)c(OC)c1)C(=O)N[C@@H](CC(C)C)B1O[C@@H]2C[C@@H]3C[C@@H](C3(C)C)[C@]2(C)O1 [D.12, 2-S-Decanoylamino-3-(3,4-dimethoxyphenylacetamido)propionamide, N-[(1S)-1-[[(1R)-1-[(3aS,4S,6S,7aR)-hexahydro-3a,5,5-trimethyl-4,6-methano-1,3,2-benzodioxaborol-2-yl]-3-methylbutyl]amino]carbonyl]] | < 0.01 | < 0.2
3 | CCCCCCCNC(=O)N[C@@H](CCCNC(=N)N[N+](=O)[O-])C(=O)N[C@@H](CC(C)C)B1O[C@@H]2C[C@@H]3C[C@@H](C3(C)C)[C@]2(C)O1 [D.6.3, N-[(1S)-1-[[[(1R)-1-[(3aS,4S,6S,7aR)-hexahydro-3a,5,5-trimethyl-4,6-methano-1,3,2-benzodioxaborol-2-yl]-3-methylbutyl]amino]carbonyl]-4-[[imino(nitroamino)methyl]amino]butyl]-N′-heptyl urea] | < 0.01 | < 0.2
4 | CC(C)C[C@H](NC(=O)[C@H](CCCNC(=N)N[N+](=O)[O-])NC(=O)CC1CC2CCC1C2)B(O)O (stereo partly drawn) [E.2.41, Boronic acid, [(1R)-1-[[(2S)-5-[[imino(nitroamino)methyl]amino]-2-[[2-(bicyclo[2.2.1]hept-2-yl)acetyl]amino]-1-oxopentyl]amino]-3-methylbutyl]] | < 0.01 | > 10
5 | Cc1nc(C)c(C(=O)N[C@@H](CCCNC(=N)N[N+](=O)[O-])C(=O)N[C@@H](CC(C)C)B(O)O)s1 [E.2.27, Boronic acid, [(1R)-1-[[(2S)-5-[[imino(nitroamino)methyl]amino]-2-[(2,4-dimethylthiazole-5-carbonyl)amino]-1-oxopentyl]amino]-3-methylbutyl]] | < 0.01 | > 10
6 | CC(C)C[C@H](NC(=O)[C@H](CCCNC(=N)N[N+](=O)[O-])NC(=O)CCCc1cccs1)B(O)O [D.7.19, Boronic acid, [(1R)-1-[[(2S)-5-[[imino(nitroamino)methyl]amino]-2-[[4-(thiophen-2-yl)butanoyl]amino]-1-oxopentyl]amino]-3-methylbutyl]] | < 0.01 | 2 to 10
7 | COc1ccccc1/C=C\C(=O)N[C@@H](CCCNC(=N)N[N+](=O)[O-])C(=O)N[C@@H](CC(C)C)B1O[C@@H]2C[C@@H]3C[C@@H](C3(C)C)[C@]2(C)O1 [D.3.31, cis-3-(2-Methoxyphenyl)acrylamide,N-[(1S)-1-[[[(1R)-1-[(3aS,4S,6S,7aR)-hexahydro-3a,5,5-trimethyl-4,6-methano-1,3,2-benzodioxaborol-2-yl]-3-methylbutyl]amino]carbonyl]-4-[[imino(nitroamino)methyl]amino]butyl]] | < 0.1 | 0.2 to 2
8 | CC(C)C[C@H](NC(=O)[C@@H](NC(=O)c1ccc2ccccc2c1)[C@@H](C)O)B(O)O [E.3.1, Boronic acid, [(1R)-1-[[(2S,3R)-3-hydroxy-2-[(2-naphthoyl)amino]-1-oxobutyl]amino]-3-methylbutyl]] | < 0.01 | < 0.2
9 | CC(C)C[C@H](NC(=O)[C@H](CCCNC(=N)N[N+](=O)[O-])NC(=O)/C=C/c1ccc(Br)cc1)B(O)O [D.7.32, Boronic acid, [(1R)-1-[[(2S)-5-[[imino(nitroamino)methyl]amino]-2-[((E)-3-(4-bromophenyl)prop-2-enoyl)amino]-1-oxopentyl]amino]-3-methylbutyl]] | < 0.01 | 2 to 10
10 | CC(C)CC(=O)N[C@@H](CCCNC(=N)N[N+](=O)[O-])C(=O)N[C@@H](CC(C)C)B(O)O [E.2.31, Boronic acid, [(1R)-1-[[(2S)-5-[[imino(nitroamino)methyl]amino]-2-[(3-methylbutanoyl)amino]-1-oxopentyl]amino]-3-methylbutyl]] | < 0.01 | > 10
11 | CC(C)C[C@H](NC(=O)[C@H](CCCNC(=N)N[N+](=O)[O-])NC(=O)CSc1ncccn1)B(O)O [E.2.54, Boronic acid, [(1R)-1-[[(2S)-5-[[imino(nitroamino)methyl]amino]-2-[[2-(pyrimidin-2-ylsulfanyl)acetyl]amino]-1-oxopentyl]amino]-3-methylbutyl]] | < 0.01 | > 10
12 | CCCCCCCCCC(=O)N[C@@H](CNC(=O)c1ccc(C)cc1)C(=O)N[C@@H](CC(C)C)B1O[C@@H]2C[C@@H]3C[C@@H](C3(C)C)[C@]2(C)O1 [D.9, Decanamide, N-[(1S)-1-[[[(1R)-1-[(3aS,4S,6S,7aR)-hexahydro-3a,5,5-trimethyl-4,6-methano-1,3,2-benzodioxaborol-2-yl]-3-methylbutyl]amino]carbonyl]-2-[(4-methylbenzoyl)amino]ethyl]-] | < 0.01 | < 0.2
13 | CCCCc1ccc(C(=O)N[C@@H](CNC(=O)Cc2ccc(OC)c(OC)c2)C(=O)N[C@@H](CC(C)C)B2O[C@@H]3C[C@@H]4C[C@@H](C4(C)C)[C@]3(C)O2)cc1 [D.24.14] | < 0.01 | < 0.2
14 | COc1ccc(F)cc1C(=O)N[C@@H](CCCNC(=N)N[N+](=O)[O-])C(=O)N[C@@H](CC(C)C)B(O)O [D.7.28, Boronic acid, [(1R)-1-[[(2S)-5-[[imino(nitroamino)methyl]amino]-2-[(5-fluoro-2-methoxybenzoyl)amino]-1-oxopentyl]amino]-3-methylbutyl]] | < 0.01 | > 10
15 | CC(C)C[C@H](NC(=O)[C@H](CCCNC(=N)N[N+](=O)[O-])NC(=O)CC1C=CCC1)B1O[C@@H]2C[C@@H]3C[C@@H](C3(C)C)[C@]2(C)O1 (mixture of isomers) [D.3.59] | < 0.01 | 0.2 to 2
16 | COc1ccc(CCCC(=O)N[C@@H](CCCNC(=N)N[N+](=O)[O-])C(=O)N[C@@H](CC(C)C)B2O[C@@H]3C[C@@H]4C[C@@H](C4(C)C)[C@]3(C)O2)cc1 [D.3.50] | < 0.01 | < 0.2

Other lines, results leading:

Row | IC50 [1] [µM] | EC50 [2] [µM] | Structure (SMILES)
17 | < 0.01 | 0.2 to 2 | CCCCC(C)CCC(=O)N[C@@H](CCCNC(=N)N[N+](=O)[O-])C(=O)N[C@@H](CC(C)C)B(O)O (mixture of isomers) [E.2.39, Boronic acid, [(1R)-1-[[(2S)-5-[[imino(nitroamino)methyl]amino]-2-[((RS)-4-methyloctanoyl)amino]-1-oxopentyl]amino]-3-methylbutyl]]
18 | < 0.01 | > 10 | COC(=O)CCCCCCC(=O)N[C@@H](CCCNC(=N)N[N+](=O)[O-])C(=O)N[C@@H](CC(C)C)B(O)O [E.1.22, Boronic acid, [(1R)-1-[[(2S)-5-[[imino(nitroamino)methyl]amino]-2-[[7-(methoxycarbonyl)heptanoyl]amino]-1-oxopentyl]amino]-3-methylbutyl]]
19 | < 0.01 | < 0.2 | CCCCCCCCCCC(=O)N[C@@H](CCCNC(=N)N[N+](=O)[O-])C(=O)N[C@@H](CC(C)C)B1O[C@@H]2C[C@@H]3C[C@@H](C3(C)C)[C@]2(C)O1 [D.3.129, Undecanamide,N-[(1S)-1-[[[(1R)-1-[(3aS,4S,6S,7aR)-hexahydro-3a,5,5-trimethyl-4,6-methano-1,3,2-benzodioxaborol-2-yl]-3-methylbutyl]amino]carbonyl]-4-[[imino(nitroamino)methyl]amino]butyl]]
20 | < 0.01 | < 0.2 | CCCCCCCCCC(=O)N[C@@H](CNC(=O)Nc1ccccc1)C(=O)N[C@@H](CC(C)C)B(O)O [E.5.21, Boronic acid, [(1R)-1-[[(2S)-3-(3-phenylureido)-2-(decanoylamino)-1-oxopropyl]amino]-3-methylbutyl]]
21 | < 0.01 | 0.2 to 2 | CCCCC[C@H]1CC[C@H](C(=O)N[C@@H](CCCNC(=N)N[N+](=O)[O-])C(=O)N[C@@H](CC(C)C)B(O)O)CC1 [E.2.6, Boronic acid, [(1R)-1-[[(2S)-5-[[imino(nitroamino)methyl]amino]-2-[(trans-4-pentylcyclohexanecarbonyl)amino]-1-oxopentyl]amino]-3-methylbutyl]]
22 | < 0.01 | 2 to 10 | C/C(=C\c1ccccc1)C(=O)N[C@@H](CCCNC(=N)N[N+](=O)[O-])C(=O)N[C@@H](CC(C)C)B(O)O [D.7.2, Boronic acid, [(1R)-1-[[(2S)-5-[[imino(nitroamino)methyl]amino]-2-[((E)-2-methyl-3-phenylacryl)amino]-1-oxopentyl]amino]-3-methylbutyl]]
23 | < 0.01 | < 0.2 | CCCCCCCCCC(=O)N[C@@H](CNS(=O)(=O)c1ccc(F)cc1)C(=O)N[C@@H](CC(C)C)B(O)O [E.5.12, Boronic acid, [(1R)-1-[[(2S)-3-[4-fluoro-benzenesulfonamide]-2-[(decanoyl)amino]-1-oxopropyl]amino]-3-methylbutyl]]

Source: patent US8546608B2, “Proteasome inhibitors and methods of using the same” (Cephalon, Inc., priority 2003, dated 2013)
